The test system of assay [1] is Aureolysin in S. aureus 8325-4 culture supernatant. Briefly: Aureolysin activity in supernatant of S. aureus grown with compound. The class given is cell-based, Staphylococcus aureus. Here is the method: (§1) Duplicate samples of brain heart infusion medium (5 ml; Becton Dickinson and Co.) containing 10% skimmed milk and 2% (v/v) DMSO vehicle±Compound 12 were inoculated with S. aureus 8325-4 (approximately 10^7 cells in tryptic soy broth) and incubated for 16 h at 37° C./220 rpm. Cultures were centrifuged to remove bacteria and the culture supernatants stored at −70° C. pending analysis of protease activity.
(§2) Enzyme activities were measured in mixtures containing 90 mM MOPS (sodium) buffer pH 7.0 (0.1 ml), 0.045% Brij 35, 2% (v/v) DMSO vehicle±Compound 12 and culture supernatant (4 μl). The concentration of compound used was the same as that which had been used to culture the assayed sample. Further additions to the reaction mixtures were as follows. Aureolysin assay: 4.5 mM calcium chloride, 9 μM E-64 (to inhibit cysteine protease activity) and 10 μM Mca-Pro-Leu-Gly-Leu-Dap(Dnp)-Ala-Arg-amide (Bachem); V8 protease assay: 10 μM Mca-Leu-Glu-Val-Asp-Gly-Trp-Lys(Dnp)-amide (Bachem); cysteine protease assay: 1.8 mM cysteine-HCl (pH-adjusted with NaOH), 9 mM EDTA and 0.1 mM Z-Phe-Arg-AMC hydrochloride (Bachem). The rate of product formation at 37° C. was monitored over 6 h taking readings at 15 min intervals using a POLARstar OPTIMA plate reader (BMG LABTECH Ltd) with 320 nm excitation/405 nm emission for aureolysin and V8 assays and 390 nm excitation/460 nm emission for the cysteine protease assay. Enzyme activities were determined from the linear rate of fluorescence increase and converted to percent inhibition by reference to vehicle control samples.

In assay [2] the test system is Cysteine protease in S. aureus 8325-4 culture supernatant. Kind of assay: Cysteine protease activity in supernatant of S. aureus grown with compound. It is filed as cell-based, Staphylococcus aureus. Here is the method: as §1, §2
Assay [3] deals with T1, recombinant human kallikrein 7 (Homo sapiens, UniProt P49862).
T1 construct: purchased R&D Systems Inc
T1 sequence (P49862 30-253): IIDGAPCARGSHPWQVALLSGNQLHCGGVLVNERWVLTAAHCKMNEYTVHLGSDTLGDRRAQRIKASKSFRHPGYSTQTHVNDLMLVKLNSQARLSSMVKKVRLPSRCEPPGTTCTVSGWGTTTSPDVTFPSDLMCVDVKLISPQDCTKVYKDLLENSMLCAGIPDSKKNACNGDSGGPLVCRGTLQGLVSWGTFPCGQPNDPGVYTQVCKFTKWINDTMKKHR
Briefly: Selectivity profile, kallikrein 7. It is filed as biochemical. As to conditions: read-out: inhibition at 0.1 mM, Kallikrein 7. Here is the method:
Inhibitory activity was tested in reaction mixtures (0.1 ml) containing 2% (v/v) DMSO vehicle±compound plus additions as follows. V8 protease: 90 mM MOPS (sodium) buffer pH 7.0, […] calcium chloride, 0.045% Brij 35, 10 μM Mca-Leu-Glu-Val-Asp-Gly-Trp-Lys(Dnp)-amide (Bachem) and V8 (BioCentrum Ltd; 30 ng). Staphopain A and B: 90 mM MOPS (sodium) buffer pH 7.0, 1.8 mM cysteine-HCl (pH-adjusted with NaOH), 0.045% Brij 35, 0.1 mM Z-Phe-Arg-AMC hydrochloride (Bachem) and staphopain A or B (BioCentrum Ltd; 30 ng). Human kallikrein 5: 0.1M sodium phosphate buffer pH 8.0, 0.045% Brij 35, 0.1 mM Boc-Val-Pro-Arg-AMC (Sigma) and recombinant human kallikrein 5 (R&D Systems Inc; 6 ng). Human kallikrein 7: 72 mM Tris-HCl pH 8.0, 0.033% Brij 35, 1.2 mM S-2586 (Chromogenix Instrumentation Laboratory SpA) and recombinant human kallikrein 7 (R&D Systems Inc; 0.6 μg) that had been thermolysin-activated according to the manufacturer's instructions. Human angiotensin-converting enzyme (ACE): 45 mM MES (sodium) buffer pH 6.5, 0.045% Brij 35, 10 μM Mca-[…]Dnp)-OH(R&D Systems Inc) and recombinant human ACE (R&D Systems Inc; 1.3 ng). Human cathepsin D: 0.1M sodium acetate buffer pH 3.5, 0.2M sodium chloride, 0.045% Brij 35, 10 μM Mca-Pro-Leu-Gly-Leu-Dap(Dnp)-Ala-Arg-amide (Bachem) and recombinant human cathepsin D (R&D Systems Inc; 8 ng) activated according to the manufacturer's instructions. […]

The target of a further assay is aureolysin (Staphylococcus aureus, UniProt P81177). Briefly: Inhibition of aureolysin-mediated pro-uPA activation. As to conditions: for Relative activity: Aureolysin 1 μg/ml, pH 5.6.
Chain of aureolysin (P81177 209-509): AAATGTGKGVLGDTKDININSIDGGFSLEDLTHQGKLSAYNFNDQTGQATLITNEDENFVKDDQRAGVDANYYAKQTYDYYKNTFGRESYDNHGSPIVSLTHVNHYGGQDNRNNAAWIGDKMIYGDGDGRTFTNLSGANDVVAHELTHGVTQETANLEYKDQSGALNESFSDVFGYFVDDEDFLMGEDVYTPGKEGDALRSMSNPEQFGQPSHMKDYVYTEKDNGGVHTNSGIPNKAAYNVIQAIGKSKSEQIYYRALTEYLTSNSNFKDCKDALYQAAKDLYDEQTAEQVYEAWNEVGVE
Assay [4] relates to protease activity in skin wash samples from patients with acute AD. Kind of assay: Zymographic analysis of skin wash samples. The class given is biochemical, human. As to conditions: 50 μM; gelatin zymogram gel; 6 samples acute AD. Here is the method:
A method has been developed to evaluate protease activity in skin washings. Skin washings from patients with acute eczema may be obtained by aspirating 0.5 ml sterile physiological saline over the skin surface using a sterile, disposable plastic Pasteur pipette The skin area (˜1 cm^2) is defined by a sterile open-ended plastic cylinder. Samples were transferred to 0.05 ml 0.55 M MOPS buffer pH 7.0, 55 mM calcium chloride and 0.2% Brij 35, mixed, centrifuged to remove debris and frozen at −70° C. pending analysis.
Zymographic analysis of the protease content of the samples may be done by mixing with 0.2 volume 0.2M Tris-HCl pH 6.8 containing 37.5% (v/v) glycerol and 2.5% sodium dodecylsulphate followed by electrophoresis through a gelatin zymogram gel (Invitrogen Corporation) according to the manufacturer's instructions. Gels were washed in 2.5% (w/v) Triton X-100 in 25 mM MOPS buffer pH 7 with or without compound 11 (50 μM) and developed overnight at 37° C. in 0.1M MOPS buffer pH 7 containing 5 mM calcium chloride with or without compound 11 (50 μM). Zones of clearing due to proteolytic activity may be identified by staining with Coomassie Brilliant Blue R followed by destaining in 40% (v/v) methanol/10% (v/v) acetic acid. […]

[5] abbreviates: Compound 12 40 μM in culture and assay.
[6] abbreviates: Compound 12 79 μM in culture and assay.
[7] abbreviates: Compound 12 159 μM in culture and assay.
Where [8] appears, read: Compound 12 317 μM in culture and assay.

Structures are written as SMILES.

By inhibition is commonly meant the change of the read-out against control, counted positive when it falls. By IC50 is commonly meant the midpoint of a concentration-inhibition curve. In the case of `CNC(=O)[C@@H](NC(=O)[C@H](CC(=O)NO)CC(C)C)C(C)(C)C` [Compound 12, (S)—N1-((S)-3,3-dimethyl-1-(methylamino)-1-oxobutan-2-yl)-N4-hydroxy-2-isobutylsuccinamide], the “Inhibition (%) Aureolysin” value stood at 89% in assay [1] (setting [5]), 94% in assay [1] (setting [6]), 98% in assay [1] (setting [7]) and 99% in assay [1] (setting [8]). The “Inhibition (%) Cysteine protease” value in assay [2] (setting [5]) is 27%; in assay [2] (setting [6]) it was 53%; in assay [2] (setting [7]) it was 78%; in assay [2] (setting [8]), 87%. Besides, the inhibition at 100 µM in assay [3] worked out at 0%. The IC50 against aureolysin came to 2400 nM. In addition, the Relative activity on aureolysin (Compound 12 25 μM) is recorded as 37%; on aureolysin (Compound 12 317 μM), 8%.

Take `CNC(=O)[C@@H](NC(=O)[C@@H](CC(=O)NO)CC(C)C)C(C)(C)C` [Compound 11, (R)—N1-((S)-3,3-dimethyl-1-(methylamino)-1-oxobutan-2-yl)-N4-hydroxy-2-isobutylsuccinamide]: in assay [4], the “inhibition of protease activity in skin wash samples, zymography (in words)” value is “significant inhibition of protease activity”.
